This note sets out measurements from patent US10508111B2, “6-[5-amino-6-(2-ethoxyethoxy)-imidazo[4,5-B]pyridin-3-yl]-nicotinonitrile derivatives and their use as IRAK inhibitors” (GALAPAGOS NV, priority 2015, dated 2019).

Experiment [1] has as its target T1, CDK9 (Homo sapiens, UniProt P50750).
T1 construct: purchased Millipore 14-685
Nature of the experiment: Kinase selectivity profiling (focused panel), radioactive filter plate assay: CDK9. To be noted: PDKtide, 0.25 μM ATP, 60 min. It is filed as biochemical. How it is done:
(§1) The purpose of this assay is to determine the activity and selectivity of a compound of the invention on a selected range of human kinases which may result in undesirable side-effects when inhibited (Dy & Adjei 2013; Force & Kolaja 2011).
(§2) The IC50 value for off-target kinases is determined in radioactive filter plate assays. The principle of the assays consists in the measurement of incorporated ^33P into a peptide substrate upon phosphorylation by the kinase enzyme using [γ-^33P]ATP and ATP. Unincorporated ^33P is removed by loading the samples on a filter plate (using a harvester, PerkinElmer) and 6 subsequent washing steps. Incorporated ^33P in the peptide substrate is measured by a scintillation counter (Topcount, PerkinElmer) after addition of MicroScint™-20 (PerkinElmer, 6013621) to the filter plates.
(§3) 5 μL of a water dilution series of test compound (starting from 20 μM or 6.6 μM highest concentration), from a 100% DMSO stock solution, 1/5 dilution, is added to the wells (final DMSO concentration of 1% in reaction assay). Enzyme and peptide substrate are used at optimized concentrations (cf. Table VI). The enzyme and substrate are diluted in assay buffer to a total volume of 11 μL. The reaction is started by addition of 9 μL of ATP+[γ-^33P]ATP, diluted in the same buffer as enzyme and substrate. The mixture is incubated at 30° C. The reaction is terminated by adding 25 μL of 150 mM phosphoric acid. Samples are transferred to filter plates and incorporated radioactivity is measured using a scintillation counter.
(§4) The incubation time, assay buffer composition, and concentrations of ATP, enzyme and substrate are reported in Table VI for example kinase off-target assays.
(§5) 10 μM staurosporine (1% DMSO) is used as positive control (100% inhibition); vehicle (water+1% DMSO) as negative control (0% inhibition).

Experiment [2] deals with T2, GSK3b (Homo sapiens, UniProt P49841).
T2 construct: purchased Carna Biosciences 04-141
As to the kind of experiment: Kinase selectivity profiling (focused panel), radioactive filter plate assay: GSK3b. It is filed as biochemical. Conditions: Phospho glycogen synthase peptide2, 1.5 μM ATP, 90 min. How it is done: as §1, §2, §3, §4, §5

For experiment [3], the system named is IL-1β triggered IL-6 release in SW1353 cells. As to the kind of experiment: SW1353 cellular selectivity assay, IL-1β trigger, IL-6 ELISA readout. It is filed as cell-based, human. To be noted: IL-1β trigger 1 ng/mL; for IC50: Homo sapiens; for IL-1β trigger IL-6 PIN at 20 μM: percent inhibition at 20 μM compound. The source says:
The aim of this assay is to evaluate the selectivity of compounds of the invention for the activated TLR/IRAK-4 pathway in an in vitro human cellular assay setting. SW1353 cells are from a chondrocytic cell line and are responsive to both the interleukin 1 (IL-1) and the TNFα cytokine triggers. Both cytokine triggers induce the expression of interleukin 6 (IL-6) and MMP13 by these cells. IL-6 and MMP13 releases are used as readouts in this assay and represent a measure for the level of inhibition of the TLR/IRAK-4 pathway by the tested compound.
SW1353 cells are cultured in DMEM supplemented with 10% FBS and 1% Penicillin/Streptomycin. Cells are incubated at 37° C. in a humidified atmosphere of 5% CO2 and subcultured twice a week. During subculturing, trypsin-EDTA is used to detach the cells, followed by a neutralization step with cell culture medium. After centrifugation (1,000 rpm during 5 min), the pellet is resuspended in cell culture medium and cells are counted using an automated cell counter (Invitrogen Countess™).
Cells are used at passage 16 and plated at a density of 15,000 cells per well in 120 μL cell culture medium in 96-well culture plates. Cells are allowed to attach during overnight incubation.
SW1353 cells are pre-incubated with test compound by addition of 15 μL of 10× concentrated compound solution for 2 h at 37° C. and 5% CO2. The compounds are tested at different concentrations and prepared by 3-fold serial dilutions from the 10 mM stock solution in DMSO followed by a 1/50 dilution step in cell culture medium. Final test concentrations in the assay start from 20 μM, with subsequent 3-fold serial dilutions with equal final DMSO concentrations of 0.2%. After the compound pre-incubation step, the SW1353 cells are triggered by addition of 15 μL of 10× concentrated IL-1f (Peprotech, 200-01B) or TNFα trigger (Peprotech, 300-01A) to the wells with final assay volume of 150 μL per well and final trigger concentration of 1 ng/mL and 10 ng/mL, respectively. Negative controls are adjusted with equal DMSO concentrations without trigger. The assay plates are then incubated in a humidified incubator at 37° C. and 5% CO2. Cell supernatants are harvested 24 h and 48 h later by transferring the cell medium into a V-bottom polypropylene 96-well plate and stored at −80° C. until ELISA readout.
The levels of secreted IL-6 in the cell supernatants are quantified in an enzyme-linked immunosorbent assay (ELISA). […] Luminescence of the converted substrate is measured with a Luminoskan™ Ascent luminometer.
All controls are measured within the linear range of the human IL-6 and MMP13 standard curve of the ELISA. […]

T1 sequence (P50750 whole entry): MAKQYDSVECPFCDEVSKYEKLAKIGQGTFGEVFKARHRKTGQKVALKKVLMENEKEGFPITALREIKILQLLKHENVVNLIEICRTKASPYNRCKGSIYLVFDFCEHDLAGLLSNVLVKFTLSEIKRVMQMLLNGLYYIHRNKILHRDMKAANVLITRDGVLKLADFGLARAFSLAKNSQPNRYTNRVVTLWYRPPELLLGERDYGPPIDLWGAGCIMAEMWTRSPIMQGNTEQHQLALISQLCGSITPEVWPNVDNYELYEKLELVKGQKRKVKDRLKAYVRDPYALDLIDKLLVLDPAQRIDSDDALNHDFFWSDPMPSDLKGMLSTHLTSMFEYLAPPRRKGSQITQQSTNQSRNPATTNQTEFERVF
T1 sequence (O60563 whole entry partner): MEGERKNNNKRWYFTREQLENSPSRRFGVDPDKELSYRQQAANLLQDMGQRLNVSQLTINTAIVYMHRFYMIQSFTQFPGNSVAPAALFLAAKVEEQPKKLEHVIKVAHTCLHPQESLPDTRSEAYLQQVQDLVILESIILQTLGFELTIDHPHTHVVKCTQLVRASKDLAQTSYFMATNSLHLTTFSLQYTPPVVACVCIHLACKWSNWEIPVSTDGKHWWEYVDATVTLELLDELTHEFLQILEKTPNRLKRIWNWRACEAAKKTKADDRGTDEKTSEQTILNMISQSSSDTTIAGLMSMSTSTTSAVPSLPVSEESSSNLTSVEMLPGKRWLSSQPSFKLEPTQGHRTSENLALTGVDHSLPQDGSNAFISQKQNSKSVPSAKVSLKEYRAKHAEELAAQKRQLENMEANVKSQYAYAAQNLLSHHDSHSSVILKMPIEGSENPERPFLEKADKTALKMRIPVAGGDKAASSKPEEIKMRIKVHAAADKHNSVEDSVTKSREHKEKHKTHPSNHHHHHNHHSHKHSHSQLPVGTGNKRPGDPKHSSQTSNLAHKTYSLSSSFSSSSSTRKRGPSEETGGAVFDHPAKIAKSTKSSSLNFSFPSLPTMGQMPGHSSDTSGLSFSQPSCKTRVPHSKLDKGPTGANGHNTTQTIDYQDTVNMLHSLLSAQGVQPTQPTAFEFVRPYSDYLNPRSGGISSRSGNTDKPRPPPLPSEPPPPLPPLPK
T2 sequence (P49841 whole entry): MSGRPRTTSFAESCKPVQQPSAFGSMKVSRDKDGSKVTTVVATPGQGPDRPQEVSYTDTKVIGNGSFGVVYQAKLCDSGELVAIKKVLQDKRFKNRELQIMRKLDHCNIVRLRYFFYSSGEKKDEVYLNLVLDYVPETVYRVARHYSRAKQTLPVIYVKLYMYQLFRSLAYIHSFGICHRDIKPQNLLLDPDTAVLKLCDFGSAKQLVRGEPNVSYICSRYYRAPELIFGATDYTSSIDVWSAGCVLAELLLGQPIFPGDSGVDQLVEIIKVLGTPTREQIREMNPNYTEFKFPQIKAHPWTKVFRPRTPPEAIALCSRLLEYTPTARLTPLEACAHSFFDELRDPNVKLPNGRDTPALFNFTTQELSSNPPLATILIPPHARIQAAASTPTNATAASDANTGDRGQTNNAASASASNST

`N#Cc1ccc(-n2cnc3cc(OCCOCCO)c(NC4CCOCC4)nc32)nc1` [Compound 1, 6-[6-[2-(2-hydroxy-ethoxy)-ethoxy]-5-(tetrahydro-pyran-4-ylamino)-imidazo[4,5-b]pyridin-3-yl]-nicotinonitrile]: the figures for the IC50 in experiment [1], in experiment [2] and in experiment [3] were above 1.33 µM, above 6.67 µM and 0.054 µM, respectively. Further, in experiment [3], the “IL-1β trigger IL-6 PIN at 20 μM” value was “[89%]”.

Turning to `C[C@]1(O)CC[C@@H](Nc2nc3c(cc2OCCOCCO)ncn3-c2ccc(C#N)cn2)CC1` [Compound 12, 6-[6-[2-(2-hydroxyethoxy)ethoxy]-5-[((cis-1,4)-4-hydroxy-4-methylcyclohexyl)amino]imidazo[4,5-b]pyridin-3-yl]pyridine-3-carbonitrile], the half-maximal inhibitory concentration (IC50) was 1.15 µM in experiment [1], above 1.33 µM in experiment [2] and 0.04 µM in experiment [3]. Besides, the “IL-1β trigger IL-6 PIN at 20 μM” value in experiment [3] was “[80%]”.
